Key:
Test in all cases: Ras-Raf disruption / FRET / MOA assay (BRAF RBD)
Type in all cases: biochemical
KRAS G12D = KRAS G12D (Homo sapiens, UniProt P01116+P62937, G12D); details: Ras-Raf disruption, with Cyclophilin A; read-out: KRAS G12D FRET data IC50
Procedure, shortened: (§1)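 Compound-induced Ras–Cyclophilin A ternary complex disrupting BRAF RBD binding, read as IC50 from reduced TR-FRET ratio relative to DMSO. Final: Ras-GMPPNP 12.5 nM, BRAF RBD 50 nM, Cyclophilin A 25 μM, top compound 30 μM (3-fold, 10 points); 3 h at 25 °C, then 1.5 h with detection antibodies.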

KRAS G12S = KRAS G12S (Homo sapiens, UniProt P01116+P62937, G12S); details: Ras-Raf disruption, with Cyclophilin A; read-out: KRAS G12S FRET data IC50
Procedure, shortened: as §1

KRAS G12V = KRAS G12V (Homo sapiens, UniProt P01116+P62937, G12V); details: Ras-Raf disruption, with Cyclophilin A; read-out: KRAS G12V FRET data IC50
Procedure, shortened: as §1

KRAS G13C = KRAS G13C (Homo sapiens, UniProt P01116+P62937, G13C); details: Ras-Raf disruption, with Cyclophilin A; read-out: KRAS G13C FRET data IC50
Procedure, shortened: as §1

KRAS G13D = KRAS G13D (Homo sapiens, UniProt P01116+P62937, G13D); details: Ras-Raf disruption, with Cyclophilin A; read-out: KRAS G13D FRET data IC50
Procedure, shortened: as §1

KRAS Q61H = KRAS Q61H (Homo sapiens, UniProt P01116+P62937, Q61H); details: KRAS Q61H; read-out: KRAS Q61H FRET data IC50
Procedure, shortened: as §1

KRAS WT = KRAS WT (Homo sapiens, UniProt P01116+P62937); details: Ras-Raf disruption, with Cyclophilin A; read-out: KRAS WT FRET data IC50
Procedure, shortened: as §1

NRAS G12C = NRAS G12C (Homo sapiens, UniProt P01111+P62937, G12C); details: NRAS G12C; read-out: NRAS G12C FRET data IC50
Procedure, shortened: as §1

NRAS Q61K = NRAS Q61K (Homo sapiens, UniProt P01111+P62937, Q61K); details: NRAS Q61K; read-out: NRAS Q61K FRET data IC50
Procedure, shortened: as §1

NRAS Q61R = NRAS Q61R (Homo sapiens, UniProt P01111+P62937, Q61R); details: NRAS Q61R; read-out: NRAS Q61R FRET data IC50
Procedure, shortened: as §1

NRAS WT = NRAS WT (Homo sapiens, UniProt P01111+P62937); details: NRAS WT; read-out: NRAS WT FRET data IC50
Procedure, shortened: as §1

KRAS G12C = KRAS G12C (Homo sapiens, UniProt P01116+P62937, G12C); details: Ras-Raf disruption, with Cyclophilin A; read-out: KRAS G12C FRET data IC50
Procedure, shortened: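 TR-FRET read-out after 1.5 h with anti-His Eu-W1024 (10 nM) and anti-GST APC (50 nM), following 3 h at 25 °C of compound (top 30 μM, 3-fold, 10 points) with 25 μM Cyclophilin A, 12.5 nM GMPPNP-loaded K-Ras G12C and 50 nM BRAF RBD; IC50 reported.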

NRAS Q61R, sequence (P01111 whole entry Q61R): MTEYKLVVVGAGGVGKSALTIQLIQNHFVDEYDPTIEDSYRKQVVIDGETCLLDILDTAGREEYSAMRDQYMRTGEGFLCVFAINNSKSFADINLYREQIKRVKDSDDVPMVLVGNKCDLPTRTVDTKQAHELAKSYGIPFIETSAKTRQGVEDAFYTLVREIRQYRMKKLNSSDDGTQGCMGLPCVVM
NRAS Q61R, sequence (P62937 whole entry): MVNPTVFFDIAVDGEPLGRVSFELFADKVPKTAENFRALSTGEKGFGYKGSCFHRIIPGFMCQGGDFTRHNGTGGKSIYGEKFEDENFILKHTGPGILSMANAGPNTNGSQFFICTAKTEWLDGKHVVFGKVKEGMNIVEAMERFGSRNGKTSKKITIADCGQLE
KRAS G12C, sequence (P01116 1-169 isoform P01116-2 G12C limits assumed): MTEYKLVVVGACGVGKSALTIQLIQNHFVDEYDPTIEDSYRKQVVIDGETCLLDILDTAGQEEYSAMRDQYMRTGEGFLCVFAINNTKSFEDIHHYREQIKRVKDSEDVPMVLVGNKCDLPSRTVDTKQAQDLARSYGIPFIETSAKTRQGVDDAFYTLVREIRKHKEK
KRAS G12C, sequence (P62937 whole entry): as the sequence (P62937 whole entry) above
KRAS Q61H, sequence (P01116 1-169 isoform P01116-2 Q61H limits assumed): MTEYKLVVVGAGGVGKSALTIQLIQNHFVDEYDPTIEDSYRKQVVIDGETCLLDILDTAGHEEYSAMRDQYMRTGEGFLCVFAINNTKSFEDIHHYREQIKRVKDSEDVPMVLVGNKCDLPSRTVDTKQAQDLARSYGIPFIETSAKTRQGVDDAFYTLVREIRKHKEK
KRAS Q61H, sequence (P62937 whole entry): as the sequence (P62937 whole entry) above
NRAS WT, sequence (P01111 whole entry): as the sequence (P01111 whole entry Q61R) above, with R61Q counted along it
NRAS WT, sequence (P62937 whole entry): as the sequence (P62937 whole entry) above
NRAS G12C, sequence (P01111 whole entry G12C): as the sequence (P01111 whole entry Q61R) above, with G12C, R61Q counted along it
NRAS G12C, sequence (P62937 whole entry): as the sequence (P62937 whole entry) above
NRAS Q61K, sequence (P01111 whole entry Q61K): as the sequence (P01111 whole entry Q61R) above, with R61K counted along it
NRAS Q61K, sequence (P62937 whole entry): as the sequence (P62937 whole entry) above
KRAS G13D, sequence (P01116 1-169 isoform P01116-2 G13D limits assumed): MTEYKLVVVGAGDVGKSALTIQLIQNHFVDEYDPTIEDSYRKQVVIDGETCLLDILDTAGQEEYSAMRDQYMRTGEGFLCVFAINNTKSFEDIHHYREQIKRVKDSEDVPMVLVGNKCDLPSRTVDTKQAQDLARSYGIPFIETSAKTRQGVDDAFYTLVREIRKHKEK
KRAS G13D, sequence (P62937 whole entry): as the sequence (P62937 whole entry) above
KRAS G13C, sequence (P01116 1-169 isoform P01116-2 G13C limits assumed): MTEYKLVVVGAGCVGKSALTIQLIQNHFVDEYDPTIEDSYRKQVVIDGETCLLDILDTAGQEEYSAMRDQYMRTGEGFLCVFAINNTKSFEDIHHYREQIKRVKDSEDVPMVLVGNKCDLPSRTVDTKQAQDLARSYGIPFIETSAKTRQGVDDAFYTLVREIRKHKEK
KRAS G13C, sequence (P62937 whole entry): as the sequence (P62937 whole entry) above
KRAS G12S, sequence (P01116 1-169 isoform P01116-2 G12S limits assumed): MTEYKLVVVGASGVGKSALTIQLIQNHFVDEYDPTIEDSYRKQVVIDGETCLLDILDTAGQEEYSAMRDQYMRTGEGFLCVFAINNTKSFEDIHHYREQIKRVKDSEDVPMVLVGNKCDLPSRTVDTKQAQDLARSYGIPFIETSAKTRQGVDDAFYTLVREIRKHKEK
KRAS G12S, sequence (P62937 whole entry): as the sequence (P62937 whole entry) above
KRAS WT, sequence (P01116 1-169 isoform P01116-2 limits assumed): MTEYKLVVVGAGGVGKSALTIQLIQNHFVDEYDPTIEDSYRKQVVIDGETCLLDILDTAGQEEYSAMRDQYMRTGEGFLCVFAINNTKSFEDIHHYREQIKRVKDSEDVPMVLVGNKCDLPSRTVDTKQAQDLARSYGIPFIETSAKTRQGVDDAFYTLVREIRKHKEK
KRAS WT, sequence (P62937 whole entry): as the sequence (P62937 whole entry) above
KRAS G12V, sequence (P01116 1-169 isoform P01116-2 G12V limits assumed): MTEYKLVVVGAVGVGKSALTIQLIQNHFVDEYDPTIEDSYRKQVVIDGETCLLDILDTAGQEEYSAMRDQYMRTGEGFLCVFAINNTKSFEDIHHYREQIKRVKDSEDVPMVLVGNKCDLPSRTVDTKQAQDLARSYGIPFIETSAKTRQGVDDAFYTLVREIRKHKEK
KRAS G12V, sequence (P62937 whole entry): as the sequence (P62937 whole entry) above
KRAS G12D, sequence (P01116 1-169 isoform P01116-2 G12D limits assumed): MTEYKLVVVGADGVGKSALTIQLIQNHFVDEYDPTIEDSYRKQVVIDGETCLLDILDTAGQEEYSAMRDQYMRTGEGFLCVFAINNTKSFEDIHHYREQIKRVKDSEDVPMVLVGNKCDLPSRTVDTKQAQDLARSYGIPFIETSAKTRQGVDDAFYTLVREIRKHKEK
KRAS G12D, sequence (P62937 whole entry): as the sequence (P62937 whole entry) above

Compound	IC50 (KRAS G12D)	IC50 (KRAS G12S)	IC50 (KRAS G12V)	IC50 (KRAS G13C)	IC50 (KRAS G13D)	IC50 (KRAS Q61H)	IC50 (KRAS WT)	IC50 (NRAS G12C)	IC50 (NRAS Q61K)	IC50 (NRAS Q61R)	IC50 (NRAS WT)	IC50 (KRAS G12C)
CCn1c(-c2cccnc2[C@H](C)OC)c2c3cc(ccc31)-c1cc(O)cc(c1)C[C@H](NC(=O)[C@H](C(C)C)N(C)C(=O)CN(C)C(=O)[C@H]1C[C@@H]3N[C@@H]3C1)C(=O)N1CCC[C@H](N1)C(=O)OCC(C)(C)C2 (atropisomer, axis not shown) [Example 285]	10 to 100 nM	10 to 100 nM	10 to 100 nM	< 10 nM	10 to 100 nM	10 to 100 nM	10 to 100 nM	10 to 100 nM	100 to 1000 nM	100 to 1000 nM	10 to 100 nM	10 to 100 nM
CCn1c(-c2cccnc2[C@H](C)OC)c2c3cc(ccc31)-c1cc(O)cc(c1)C[C@H](NC(=O)[C@H](C(C)C)N(C)C(=O)[C@H]1C[C@@H]3N[C@@H]3C1)C(=O)N1CCC[C@H](N1)C(=O)OCC(C)(C)C2 (atropisomer, axis not shown) [Example 286]	100 to 1000 nM	100 to 1000 nM	100 to 1000 nM	10 to 100 nM	10 to 100 nM	10 to 100 nM	100 to 1000 nM	100 to 1000 nM	100 to 1000 nM	100 to 1000 nM	100 to 1000 nM	100 to 1000 nM
CCn1c(-c2cccnc2[C@H](C)OC)c2c3cc(ccc31)-c1csc(n1)C[C@H](NC(=O)[C@H](C(C)C)N(C)C(=O)N1CCC[C@H](N(C)C(=O)[C@@H]3CN3)C1)C(=O)N1CCC[C@H](N1)C(=O)OCC(C)(C)C2 (atropisomer, axis not shown) [Example 292]	1000 to 10000 nM	100 to 1000 nM	100 to 1000 nM	100 to 1000 nM	1000 to 10000 nM	100 to 1000 nM	100 to 1000 nM	100 to 1000 nM	100 to 1000 nM	100 to 1000 nM	100 to 1000 nM	100 to 1000 nM
CCn1c(-c2cccnc2[C@H](C)OC)c2c3cc(ccc31)-c1csc(n1)C[C@H](NC(=O)[C@H](C(C)C)N(C)C(=O)N(C)CC1CN(C(=O)[C@H]3CN3)C1)C(=O)N1CCC[C@H](N1)C(=O)OCC(C)(C)C2 (atropisomer, axis not shown) [Example 293]	100 to 1000 nM	100 to 1000 nM	100 to 1000 nM	100 to 1000 nM	100 to 1000 nM	10 to 100 nM	100 to 1000 nM	10 to 100 nM	10 to 100 nM	100 to 1000 nM	100 to 1000 nM	10 to 100 nM
CCn1c(-c2cccnc2[C@H](C)OC)c2c3cc(ccc31)-c1csc(n1)C[C@H](NC(=O)[C@H](C(C)C)N(C)C(=O)N(C)CC1CN(C(=O)[C@@H]3CN3)C1)C(=O)N1CCC[C@H](N1)C(=O)OCC(C)(C)C2 (atropisomer, axis not shown) [Example 294]	100 to 1000 nM	100 to 1000 nM	100 to 1000 nM	100 to 1000 nM	100 to 1000 nM	10 to 100 nM	100 to 1000 nM	10 to 100 nM	10 to 100 nM	100 to 1000 nM	100 to 1000 nM	10 to 100 nM
CCn1c(-c2cccnc2[C@H](C)OC)c2c3cc(ccc31)-c1csc(n1)C[C@H](NC(=O)[C@H](C(C)C)N(C)C(=O)N(C)[C@H]1CCCN(C(=O)[C@H]3CN3)C1)C(=O)N1CCC[C@H](N1)C(=O)OCC(C)(C)C2 (atropisomer, axis not shown) [Example 295]	1000 to 10000 nM	1000 to 10000 nM	1000 to 10000 nM	1000 to 10000 nM	1000 to 10000 nM	100 to 1000 nM	100 to 1000 nM	100 to 1000 nM	100 to 1000 nM	1000 to 10000 nM	100 to 1000 nM	100 to 1000 nM
CCn1c(-c2cccnc2[C@H](C)OC)c2c3cc(ccc31)-c1csc(n1)C[C@H](NC(=O)[C@H](C(C)C)N(C)C(=O)N(C)[C@H]1CCN(C(=O)[C@H]3CN3)C1)C(=O)N1CCC[C@H](N1)C(=O)OCC(C)(C)C2 (atropisomer, axis not shown) [Example 296]	1000 to 10000 nM	100 to 1000 nM	1000 to 10000 nM	100 to 1000 nM	1000 to 10000 nM	100 to 1000 nM	100 to 1000 nM	100 to 1000 nM	100 to 1000 nM	100 to 1000 nM	100 to 1000 nM	100 to 1000 nM

— US20230233569A1 (Revolution Medicines, Inc., priority 2020, published 2023)
